Columns and labels:
Test in all cases: Indoor herbicide activity determination, Seed Treatment; pre-emergence (soil spray)
Format in all cases: in vivo
Eclipta prostrata = details: read-out: Herbicidal activities (inhibition rate) Eclipta prostrata; for inhibition at 60 g/ha: 60 g a.i./ha; for inhibition at 120 g/ha: 120 g a.i./ha
How it was run: (§1)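 Weed seeds sown in 7 cm pots of sandy nutrient soil (pH 6.1, 1% organic matter), kept 24 h in a constant-temperature lit room, then soil sprayed by traveling spray tower (flow 390 mL/min). Fresh-weight inhibition % versus untreated controls scored 21 days later.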

Digitaria sanguinalis = details: read-out: Herbicidal activities (inhibition rate) Digitaria sanguinalis; for inhibition at 60 g/ha: 60 g a.i./ha; for inhibition at 120 g/ha: 120 g a.i./ha
How it was run: as §1

Eleusine indica = system: Eleusine indica
How it was run: as §1

Cyperus iria = details: read-out: Herbicidal activities (inhibition rate) Cyperus iria; for inhibition at 60 g/ha: 60 g a.i./ha; for inhibition at 120 g/ha: 120 g a.i./ha
How it was run: as §1

Aegilops tauschii = details: read-out: Herbicidal activities (inhibition rate) Aegilops tauschii; for inhibition at 60 g/ha: 60 g a.i./ha; for inhibition at 120 g/ha: 120 g a.i./ha
How it was run: as §1

Alopecurus myosuroides = system: Alopecurus myosuroides
How it was run: as §1

Alopecurus japonicus = system: Alopecurus japonicus
How it was run: as §1

Leptochloa chinensis = system: Leptochloa chinensis
How it was run: as §1

Lolium multiflorum = system: Lolium multiflorum
How it was run: as §1

SMILES	inhibition at 60 g/ha (Eclipta prostrata) [%]	inhibition at 60 g/ha (Digitaria sanguinalis) [%]	Herbicidal activity (inhibition rate class), Eleusine indica (Eleusine indica; Dosage 120 g a.i./ha)	inhibition at 60 g/ha (Cyperus iria) [%]	inhibition at 60 g/ha (Aegilops tauschii) [%]	Herbicidal activity (inhibition rate class), Alopecurus myosuroides (Alopecurus myosuroides; Dosage 120 g a.i./ha)	Herbicidal activity (inhibition rate class), Alopecurus japonicus (Alopecurus japonicus; Dosage 120 g a.i./ha)	Herbicidal activity (inhibition rate class), Leptochloa chinensis (Leptochloa chinensis; Dosage 120 g a.i./ha)	Herbicidal activity (inhibition rate class), Lolium multiflorum (Lolium multiflorum; Dosage 120 g a.i./ha)	inhibition at 120 g/ha (Eclipta prostrata) [%]	inhibition at 120 g/ha (Digitaria sanguinalis) [%]	Herbicidal activity (inhibition rate class), Eleusine indica (Eleusine indica; Dosage 240 g a.i./ha)	inhibition at 120 g/ha (Cyperus iria) [%]	inhibition at 120 g/ha (Aegilops tauschii) [%]	Herbicidal activity (inhibition rate class), Alopecurus myosuroides (Alopecurus myosuroides; Dosage 240 g a.i./ha)	Herbicidal activity (inhibition rate class), Alopecurus japonicus (Alopecurus japonicus; Dosage 240 g a.i./ha)	Herbicidal activity (inhibition rate class), Leptochloa chinensis (Leptochloa chinensis; Dosage 240 g a.i./ha)	Herbicidal activity (inhibition rate class), Lolium multiflorum (Lolium multiflorum; Dosage 240 g a.i./ha)
C=C[C@]1(C(=O)N[C@H]2C=C[C@@H](C(=O)OC(C)C)C2)CC(c2cc(F)cc(OC(F)(F)F)c2)=NO1 [I-463]	60 to 80	60 to 80	A (A indicates that the inhibition rate was greater than or equal to 80% to 100%)	60 to 80	60 to 80	A (A indicates that the inhibition rate was greater than or equal to 80% to 100%)	A (A indicates that the inhibition rate was greater than or equal to 80% to 100%)	A (A indicates that the inhibition rate was greater than or equal to 80% to 100%)	A (A indicates that the inhibition rate was greater than or equal to 80% to 100%)	–	–	–	–	–	–	–	–	–
CC1(C(=O)N[C@H]2C=C[C@@H](C(=O)O)C2)CC(c2cc(Cl)cc(OC(F)(F)F)c2)=NO1 (stereo partly drawn) [I-485]	–	–	–	–	–	–	–	–	–	80 to 100	60 to 80	A (A indicates that the inhibition rate was greater than or equal to 80% to 100%)	80 to 100	80 to 100	A (A indicates that the inhibition rate was greater than or equal to 80% to 100%)	A (A indicates that the inhibition rate was greater than or equal to 80% to 100%)	A (A indicates that the inhibition rate was greater than or equal to 80% to 100%)	A (A indicates that the inhibition rate was greater than or equal to 80% to 100%)
COC(=O)[C@@H]1C=C[C@H](NC(=O)C2(C)CC(c3cc(Cl)cc(OC(F)(F)F)c3)=NO2)C1 (stereo partly drawn) [I-486]	–	–	–	–	–	–	–	–	–	80 to 100	60 to 80	A (A indicates that the inhibition rate was greater than or equal to 80% to 100%)	80 to 100	80 to 100	A (A indicates that the inhibition rate was greater than or equal to 80% to 100%)	A (A indicates that the inhibition rate was greater than or equal to 80% to 100%)	A (A indicates that the inhibition rate was greater than or equal to 80% to 100%)	A (A indicates that the inhibition rate was greater than or equal to 80% to 100%)
CSCCOC(=O)[C@@H]1C=C[C@H](NC(=O)C2(C)CC(c3cc(Cl)cc(OC(F)(F)F)c3)=NO2)C1 (stereo partly drawn) [I-487]	–	–	–	–	–	–	–	–	–	80 to 100	60 to 80	A (A indicates that the inhibition rate was greater than or equal to 80% to 100%)	80 to 100	80 to 100	A (A indicates that the inhibition rate was greater than or equal to 80% to 100%)	A (A indicates that the inhibition rate was greater than or equal to 80% to 100%)	A (A indicates that the inhibition rate was greater than or equal to 80% to 100%)	A (A indicates that the inhibition rate was greater than or equal to 80% to 100%)
CC1(C(=O)N[C@H]2C=C[C@@H](C(=O)O)C2)CC(c2cc(F)cc(OC(F)(F)F)c2)=NO1 (stereo partly drawn) [I-488]	–	–	–	–	–	–	–	–	–	80 to 100	60 to 80	A (A indicates that the inhibition rate was greater than or equal to 80% to 100%)	80 to 100	80 to 100	A (A indicates that the inhibition rate was greater than or equal to 80% to 100%)	A (A indicates that the inhibition rate was greater than or equal to 80% to 100%)	A (A indicates that the inhibition rate was greater than or equal to 80% to 100%)	A (A indicates that the inhibition rate was greater than or equal to 80% to 100%)
CSCCOC(=O)[C@@H]1C=C[C@H](NC(=O)C2(C)CC(c3cc(F)cc(OC(F)(F)F)c3)=NO2)C1 (stereo partly drawn) [I-490]	–	–	–	–	–	–	–	–	–	80 to 100	80 to 100	A (A indicates that the inhibition rate was greater than or equal to 80% to 100%)	80 to 100	80 to 100	A (A indicates that the inhibition rate was greater than or equal to 80% to 100%)	A (A indicates that the inhibition rate was greater than or equal to 80% to 100%)	A (A indicates that the inhibition rate was greater than or equal to 80% to 100%)	A (A indicates that the inhibition rate was greater than or equal to 80% to 100%)
CC1(C(=O)N[C@H]2C=C[C@@H](C(=O)OCCS(C)(=O)=O)C2)CC(c2cc(F)cc(OC(F)(F)F)c2)=NO1 (stereo partly drawn) [I-492]	–	–	–	–	–	–	–	–	–	80 to 100	80 to 100	A (A indicates that the inhibition rate was greater than or equal to 80% to 100%)	60 to 80	80 to 100	A (A indicates that the inhibition rate was greater than or equal to 80% to 100%)	A (A indicates that the inhibition rate was greater than or equal to 80% to 100%)	A (A indicates that the inhibition rate was greater than or equal to 80% to 100%)	A (A indicates that the inhibition rate was greater than or equal to 80% to 100%)
CC1(C(=O)N[C@H]2C=C[C@@H](C(=O)O)C2)CC(c2cc(F)cc(C(F)(F)F)c2)=NO1 (stereo partly drawn) [I-493]	–	–	–	–	–	–	–	–	–	60 to 80	60 to 80	A (A indicates that the inhibition rate was greater than or equal to 80% to 100%)	80 to 100	80 to 100	A (A indicates that the inhibition rate was greater than or equal to 80% to 100%)	A (A indicates that the inhibition rate was greater than or equal to 80% to 100%)	A (A indicates that the inhibition rate was greater than or equal to 80% to 100%)	A (A indicates that the inhibition rate was greater than or equal to 80% to 100%)
COC(=O)[C@@H]1C=C[C@H](NC(=O)C2(C)CC(c3cc(F)cc(OC(F)F)c3)=NO2)C1 (stereo partly drawn) [I-505]	–	–	–	–	–	–	–	–	–	80 to 100	80 to 100	B (B indicates that the inhibition rate was greater than or equal to 60% to less than 80%)	80 to 100	80 to 100	A (A indicates that the inhibition rate was greater than or equal to 80% to 100%)	A (A indicates that the inhibition rate was greater than or equal to 80% to 100%)	A (A indicates that the inhibition rate was greater than or equal to 80% to 100%)	A (A indicates that the inhibition rate was greater than or equal to 80% to 100%)
COC(=O)[C@@H]1C=C[C@H](NC(=O)C2(C)CC(c3cc(Cl)cc(C(F)(F)F)c3)=NO2)C1 (stereo partly drawn) [I-511]	–	–	–	–	–	–	–	–	–	80 to 100	80 to 100	A (A indicates that the inhibition rate was greater than or equal to 80% to 100%)	80 to 100	80 to 100	A (A indicates that the inhibition rate was greater than or equal to 80% to 100%)	A (A indicates that the inhibition rate was greater than or equal to 80% to 100%)	A (A indicates that the inhibition rate was greater than or equal to 80% to 100%)	A (A indicates that the inhibition rate was greater than or equal to 80% to 100%)
O=C(O)[C@@H]1C=C[C@H](NC(=O)[C@@]2(C(F)(F)F)CC(c3cc(F)cc(C(F)(F)F)c3)=NO2)C1 [I-516]	60 to 80	80 to 100	A (A indicates that the inhibition rate was greater than or equal to 80% to 100%)	80 to 100	80 to 100	A (A indicates that the inhibition rate was greater than or equal to 80% to 100%)	A (A indicates that the inhibition rate was greater than or equal to 80% to 100%)	A (A indicates that the inhibition rate was greater than or equal to 80% to 100%)	A (A indicates that the inhibition rate was greater than or equal to 80% to 100%)	–	–	–	–	–	–	–	–	–

Source: patent publication EP4722201A1, “3-PHENYLISOXAZOLINE-5-CARBOXAMIDE COMPOUND, AND PREPARATION METHOD THEREFOR, HERBICIDAL COMPOSITION THEREOF AND USE THEREOF” (Jiangsu Flag Chemical Industry Co., Ltd, priority 2023, dated 2024)
